This is an account of results in patent publication US20250320204A1 (RIBOSCIENCE LLC, priority 2023, published 2025).

For test [1], the target named is T1, ENPP1 (Homo sapiens, UniProt P22413).
T1 sequence (P22413 1-925): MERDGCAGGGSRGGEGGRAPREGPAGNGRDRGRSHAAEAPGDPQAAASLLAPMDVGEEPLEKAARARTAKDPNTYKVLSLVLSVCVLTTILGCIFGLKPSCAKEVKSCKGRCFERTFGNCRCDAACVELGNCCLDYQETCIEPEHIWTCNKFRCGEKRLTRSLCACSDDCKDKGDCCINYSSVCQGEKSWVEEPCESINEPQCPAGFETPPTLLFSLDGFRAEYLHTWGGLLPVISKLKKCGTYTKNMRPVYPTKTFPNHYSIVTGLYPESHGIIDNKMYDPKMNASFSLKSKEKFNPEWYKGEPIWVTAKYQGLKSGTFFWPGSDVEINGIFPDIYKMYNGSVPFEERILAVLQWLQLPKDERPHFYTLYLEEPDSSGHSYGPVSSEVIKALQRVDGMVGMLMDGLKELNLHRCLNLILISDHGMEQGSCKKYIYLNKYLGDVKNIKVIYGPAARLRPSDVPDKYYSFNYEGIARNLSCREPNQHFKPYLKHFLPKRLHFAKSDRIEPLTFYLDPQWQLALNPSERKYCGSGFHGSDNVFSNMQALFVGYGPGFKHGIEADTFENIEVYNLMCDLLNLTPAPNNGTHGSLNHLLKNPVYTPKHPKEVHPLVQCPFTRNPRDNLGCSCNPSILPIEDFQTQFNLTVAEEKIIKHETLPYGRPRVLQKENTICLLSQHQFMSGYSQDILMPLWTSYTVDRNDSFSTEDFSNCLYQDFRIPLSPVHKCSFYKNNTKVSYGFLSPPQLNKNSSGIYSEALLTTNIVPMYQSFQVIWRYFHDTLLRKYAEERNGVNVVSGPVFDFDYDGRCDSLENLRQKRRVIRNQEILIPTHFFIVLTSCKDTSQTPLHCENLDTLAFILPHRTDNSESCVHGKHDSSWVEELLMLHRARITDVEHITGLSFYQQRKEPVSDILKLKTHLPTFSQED
The experiment in a line: Measurement of pNP-TMP hydrolysis by ENPP1. The test is classed as biochemical. To be noted: pNP-TMP substrate 500 μM, Km 232 μM; Ki from IC50 by Cheng-Prusoff. The procedure:
Measurement of pNP-TMP hydrolysis by ENPP1
p-Nitrophenyl thymidine 5′-monophosphate (pNP-TMP) is a synthesized substrate for ENPP1. The ENPP1 enzyme activity assay with pNP-TMP substrate was conducted as follows:
First, in a 60 μl reaction, 7.5 ng purified ENPP1 was mixed with 1.2 μl compounds of Formula (I) (test compound) ranging from 13.7 nM to 10 μM. Incubation of ENPP1 with compounds was set at 25° C. for 10 min. Reactions with DMSO only (with ENPP1 but no compound) gave the fastest reaction (MAX Activity). For each compound dilution, wells with assay buffer (50 mM Tris -HCl, pH8.8, 250 mM NaCl, 0.1 mg/ml BSA) and test compounds but no ENPP1 were included as controls for the subtraction of test compound derived absorbance at 405 nm.
Second, after 10 minutes incubation of ENPP1 and test compound, the assay was initiated by transferring 50 μl of the above mentioned ENPP1/test compound reaction into 50 μl of 1 mM pNP-TMP in assay buffer results in a 100 μl total reaction in non-binding surface clear bottom 96 well plates. Absorbance at 405 nm was recorded immediately in kinetic mode by PerkinElmer 2300 Enspire multimode plate reader.
For each inhibitor, the specific ENPP1 activity was calculated using the following equation: ENPP1 activity (pmol/min/μg)=Adjusted Vmax (OD405 nm/min) X conversion factor (pmol/OD405 nm)/amount of enzyme (μg)
Adjusted Vmax=V0X (Km+(S))/(S). In this assay, Km=232 μM, (S)=500 μM. Adjusted Vmax=1.464 X V0.
V0=(OD405 nm with ENPP1-OD405 nm ENPP1 blank)/minutes. OD405 nm was plotted, with blank subtracted, against time (minutes), the initial linear rate is V0.
The conversion factor (pmol/OD405 nm), was determined by plotting the amount of standard, 4-Nitrophenol (Sigma -Aldrich, Catalog #241326), against absorbance at 405 nm. The slope is the conversion factor. The percent ENPP1 activity for each sample was calculated using the following equation: […]
To determine the IC50 for each compound, compound concentration values and percent enzyme activity values were inserted into GraphPad Prism (GraphPad Prism version 9.0 for Windows, GraphPad Software, La Jolla California USA, www.graphpad.com), and Prism's Transform analysis was used to convert the x-axis values (compound concentration) to logarithms. A sigmoidal variable slope nonlinear regression analysis was performed using the following equation: Y=Bottom+ (Top-Bottom)/(1+10^((Log IC50″X) *HillSlope)).
Ki values for each compound were calculated from the observed IC50 from GraphPad analysis using the Cheng-Prusoff equation: Ki=IC50/(1+(S)/KM). (S) here is 500 μM and KM is determined to be 232 μM.

For test [2], the target named is T1, ENPP1. The test can be described thus: Measurement of 2′3′-cGAMP hydrolysis by ENPP1 (AMP-Glo). The test is classed as biochemical. To be noted: 2′3′-cGAMP substrate 100 μM, KM 32 μM; Ki from IC50 by Cheng-Prusoff. The procedure: Measurement of 2′3′-cGAMP hydrolysis by ENPP1
The AMP-Glo assay kit from Promega (catalog number V5012) was used for measurement of 5′-AMP production.
First, an ENPP1 and test compound incubation was set up in assay buffer (50 mM Tris -HCl, pH8.8, 250 mM NaCl, 0.1 mg/ml BSA) with following conditions: ENPP1 concentration: 1.25 nM; test compound concentration ranging from 137 pM to 100 nM. The incubation was carried out at 25° C. for 10 min.
Second, after the 10-minute incubation of ENPP1 and test compound, prepare on a separate plate, 15 μl of the substrate 2′3′-cGAMP at 200 μM in assay buffer. Then, 15 μl of the ENPP1/Compound incubation was transferred to the 200 μM 2′3′-cGAMP solution to initiate the reaction. The 30 μl mixture was incubated for 30 min at 25° C. In all these assays a DMSO control without compound was included which gave the maximum 5′-AMP production (MAX RLU). After 30 min the reaction was stopped by heating at 90° C. for 3 min.
Third, the Promega AMP-Glo kit was used to detect 5′-AMP production as a measurement of ENPP1 enzyme activity. Briefly, 10 μl of the above mentioned 30 μl total reaction per sample was transferred into 384 well white solid assay plate for measurement of 5′-AMP production. For each well, 10 μl of AMP-Glo Reagent I was added, mixed well, and incubated for 1 hour at 25° C. At this time AMP detection solution was prepared and 20 μl was added per well, and the resulting solution was incubated for 1 hr at 25° C. Duplicates were run for each inhibitor concentration. Luminescence signal (relative luminescence units, RLU) was recorded using a PerkinElmer 2300 Enspire multimode plate reader.
The % inhibition was calculated using the following equation: % inhibition=(MAX RLU-sample RLU)/MAX RLU X 100%.
IC50 values of compounds were determined by loading compound concentration data and percent inhibition values into GraphPad Prism (GraphPad Prism version 7.0 for
Windows, GraphPad Software, La Jolla California USA, www.graphpad.com) and conducted a Sigmoidal variable slope nonlinear regression fitting.
Ki values for each compound were calculated from the observed IC50 from GraphPad analysis using the Cheng-Prusoff equation: Ki=IC50/(1+ (S)/KM). (S) here is 100μ M and KM is 32 μm.

In the case of `N=S(=O)(c1cccc(COc2ccnc3c(OCF)nccc23)c1)C1CC1` (racemic) [Example 41, cyclopropyl(3-(((8-(fluoromethoxy)-1,7-naphthyridin-4-yl)oxy)methyl)phenyl)-(imino)-lambda6-sulfanone], the Ki in test [1] was less than 10 nM; in test [2], less than 1 nM.

With `CS(=N)(=O)CC1(O)CCN(c2ccnc3c(OCF)nccc23)CC1` (racemic) [Example 47, ((1-(8-(fluoromethoxy)-1,7-naphthyridin-4-yl)-4-hydroxypiperidin-4-yl)methyl) (imino)(methyl)-lambda6-sulfanone], the Ki in test [2] is less than 1 nM.

The compound `COc1nccc2c(OCc3cc(F)cc(S(=N)(=O)C4CC4)c3)ccnc12` (racemic) [Example 66, cyclopropyl(3-fluoro-5-(((8-methoxy-1,7-naphthyridin-4-yl)oxy)methyl)-phenyl) (imino)-lambda6-sulfanone] showed a Ki in test [2] of less than 1 nM.

On to `CS(=N)(=O)c1cccc(COc2ccnc3c(OCF)nccc23)c1` (racemic) [Example 77, (3-(((8-(fluoromethoxy)-1,7-naphthyridin-4-yl)oxy)methyl)phenyl) (imino)(methyl)-lambda6-sulfanone], for which the Ki in test [1] was less than 10 nM; in test [2], less than 1 nM.

Regarding `COc1nccc2c(N3CC4(CC(CS(C)(=N)=O)C4)C3)ncnc12` (single isomer, unassigned) [Example 2a, imino ((2-(8-methoxypyrido[3,4-d]pyrimidin-4-yl)-2-azaspiro[3.3]heptan-6-yl)methyl)(methyl)-lambda6-sulfanone], the Ki was less than 10 nM in test [1] and less than 1 nM in test [2].

`N=[S@@](=O)(c1cccc(COc2ccnc3c(OCF)nccc23)c1)C1CC1` (single isomer, unassigned) [Example 43]: the Ki in test [1] is less than 10 nM; in test [2], less than 1 nM.

For `C[S@](=N)(=O)CC1(O)CCN(c2ccnc3c(OCF)nccc23)CC1` (single isomer, unassigned) [Example 49], the values for the Ki in test [1] and in test [2] were less than 10 nM and less than 1 nM, respectively.

With `COc1nccc2c(OCc3cc(F)cc([S@@](=N)(=O)C4CC4)c3)ccnc12` (single isomer, unassigned) [Example 67], the Ki in test [1] is less than 10 nM; in test [2], less than 1 nM.

Turning to `COc1nccc2c(N3CCC(O)(CS(C)(=N)=O)CC3)ccnc12` (stereo not drawn) [Example 25], the Ki in test [2] is less than 1 nM.

As for `CS(=N)(=O)CCC1CCN(c2ccnc3c(OCF)nccc23)CC1` (stereo not drawn) [Example 65, (2-(1-(8-(fluoromethoxy)-1,7-naphthyridin-4-yl)piperidin-4-yl)ethyl)-(imino)(methyl)-lambda6-sulfanone], the Ki in test [1] is less than 10 nM.

With `CS(=N)(=O)c1cc(F)cc(COc2ccnc3c(OCF)nccc23)c1` (stereo not drawn) [Example 72, (3-fluoro-5-(((8-(fluoromethoxy)-1,7-naphthyridin-4-yl)oxy)methyl)phenyl)-(imino)(methyl)-lambda6-sulfanone], in test [2], the Ki is less than 1 nM.

In test [1], `COc1nccc2c(OCc3cccc([S@@](=N)(=O)C(C)(C)C)c3)ccnc12` [Example 74, (S)-tert-butyl(imino) (3-(((8-methoxy-1,7-naphthyridin-4-yl)oxy)methyl)phenyl)-lambda6-sulfanone] displayed a Ki of less than 10 nM.

`COc1nccc2c(OCc3cccc([S@@](C)(=N)=O)c3)ccnc12` [Example 75, (S)-imino (3-(((8-methoxy-1,7-naphthyridin-4-yl)oxy)methyl)phenyl)(methyl)-lambda6-sulfanone] came in with a Ki in test [1] of less than 10 nM.

Regarding `COc1nccc2c(OCc3cccc([S@](=N)(=O)C(C)(C)C)c3)ccnc12` [Example 76, (R)-tert-butyl(imino) (3-(((8-methoxy-1,7-naphthyridin-4-yl)oxy)methyl)phenyl)-lambda6-sulfanone], the Ki in test [1] was in the range of 10 to 100 nM.

`COc1nccc2c(OCc3cccc([S@@](=N)(=O)C(C)C)c3)ccnc12` [Example 84, (S)-imino(isopropyl)(3-(((8-methoxy-1,7-naphthyridin-4-yl)oxy)methyl)phenyl)-lambda6-sulfanone] had a Ki in test [1] of less than 10 nM.
